# System: ADHD symptoms
# Experiment: Treatment response to stimulant medication on the SWAN scale, by LPHN3-11q genotype
# Type: in vivo, human
# Settings: 82 individuals, US1 sample
# Experimental: Eighty-two individuals with complete genotype and phenotype information were sampled from the original 240 trios in the US1 sample of Example 1. A comparative analyses regarding stimulant treatment was done as described in Arcos-Burgos et al., Mol. Psychiatry, 15(11): 1053-66 (2010). An analysis was performed to determine the relationship of SWAN scale (Strengths and Weaknesses of ADHD Symptoms and Normal Behavior scale) questions individually as well as inattentive and hyperactive combined dimensions (questions 1-9 indicate inattentive symptoms and questions 10-18 indicate hyperactive symptoms), prior to and after starting treatment with the stimulant methylphenidate.
structure (smiles),measurement,setting,value
COC(=O)C(c1ccccc1)C1CCCCN1 (centres unmarked) [methylphenidate],response to stimulant medication treatment (SWAN scale),individuals having AA at rs6551665 and fewer than two copies of the susceptibility haplotype on 11q,poor response
same,"change of symptoms after treatment with stimulant medication (SWAN scale question 18, hyperactive-impulsive dimension)",individuals having GG at rs6551665 and two copies of the susceptibility haplotype on 11q,significant improvement of symptoms

# — US20130012497A1, “METHODS FOR DETECTING ADHD SUSCEPTIBILITY AND […] AND LONG TERM OUTCOME OF ADHD SYMPTOMS” (The United States of America, as represented by the …, priority 2011, published 2013)
